These results are taken from patent publication US6590140B1, “Metal-regulated transporters and uses therefor” (Trustees of Dartmouth College, priority 1996, dated 2003).

Molecules are shown by their SMILES. Several values for one entry are separate records, joined by “and”; a condition that tells them apart may be missing. Equal entries are not always repeated.

Common to all, as to type: cell-based, Saccharomyces cerevisiae
One data set has as its system zrt1 mutant (ZHY1) cells. Conditions: for effect on zrt1 growth in LIM: 500 μM metal added to iron-limiting medium LIM (1 mM EDTA). As to the method:
Strains used were DY1457 (MATα ade6 can1 his3 leu2 trp1 ura3) and ZHY1 (MaTα ade6 can1 his3 leu2 trp1 ura3 zrt1:: LEU2). Yeast were grown in standard culture media (SD, YPD) (Eide, D., Davis-Kaplan S., Jordan, I., Sipe, D., and Kaplan, J. (199: 2) J. Biol. Chem. 267, 20774-20781) supplemented with necessary auxotrophic requirements and either 2% glucose or 2% galactose. A zinc-limiting medium (LZM) was prepared in the same manner as LIM (Eide and Guarenete (1992) J. Gen. Microbiol. 138:347-354) except that […]. Cell number in liquid cultures was determined by measuring the optical density of cell suspensions at 600 nm (A600) and converting to cell number with a standard curve.
Strains used were DY1457 (MATα ade6 can1 his3 leu2 trp1 ura3), ZHY1 (AMTα ade6 can1 his3 leu2 trp1 ura3 zrt1::LEU2), ZHY2 (MATα ade6 can1 his3 leu2 trp1 ura3 zrt2::HIS3), and ZHY3 (MATα ade6 can1 his3 leu2 trp1 ura3 zrt1::LEU2 zrt2::HIS3). Yeast were grown in YP or SD media (Sherman et al. (1986) Methods in Yeast Genetics, Cold Spring Harbor Laboratory, Cold Spring Harbor, N.Y.) supplemented with necessary auxotrophic requirements and either 2% glucose or 2% galactose. Zinc-limiting YP and SD agar plates contained either bathophenanthroline disulfonate (BPS, 200 μM) or EDTA (1 mM), respectively. A liquid zinc-limiting medium (low zinc medium, LZM) was prepared in the same manner as low iron medium (LIM) (Eide and Guarente (1992) J. Gen. Microbiol. 138:347-354) except that the […]. LZM is similar in composition to SD medium with two modifications essential to controlling zinc availability. First, 1 mM EDTA is added to provide buffering for the concentration of free metal ions. Second, the medium is pH-buffered at 4.2 with 20 mM citrate to prevent pH changes that could alter the metal binding ability of EDTA. LZM was also prepared without EDTA ([…]) which is less zinc-limiting because the predominant chelator in this medium, citrate, binds zinc with less affinity than does EDTA. The concentrations of free (i.e. unchelated) zinc were calculated using MAXCHELATOR software (Chris Patton, Stanford University). Cell number in liquid cultures was determined by measuring the absorbance of cell suspensions at 600 nm (OD600) and converting to cell number with a standard curve.
To examine the function of ZRT1, a disruption mutation, zrt1::LEU2, was constructed by inserting the LEU2 gene into the center of ZRT1 (FIG. 6). This zrt1 disruption allele was then introduced into a haploid yeast strain. […] Because of the high EDTA concentration in LIM (1 mM), this medium is expected to have low available levels of other metals that are bound tightly by this chelator. Supplements of other metals were tested for improved growth of the zrt1 mutant in LIM. […] To study this effect further, a low zinc medium, LZM, was developed in which cell growth could be limited by zinc deficiency and the growth response of the wild type and zrt1 mutant strains to increasing levels of supplemented zinc was examined. Wild type (DY1457, squares) and zrt1 mutant (ZHY1, circles) cells were inoculated into LZM supplemented with the indicated amount of ZnSO4 and grown for 16 hours prior to cell number determination. […] Mutant zrt1 cells attained this same maximum number of cell divisions only with zinc supplements of 750 μM or more, i.e. a 75-fold increase in the zinc requirement of the zrt1 mutant compared to the wild type.
To further assess the role of the low affinity system as a source of zinc, growth of wild type and zrt2 cells in a zinc-limiting medium, LZM, supplemented with increasing amounts of zinc was examined. The same strains as in FIG. 15 were grown for six hours in SD glucose medium, harvested, washed in LZM, and reinoculated into either LZM (FIG. 15A) or LZM-EDTA (FIG. 15B) supplemented with the indicated concentrations of ZnCl2 ([Zn]T). […]

The next data set deals with zrt1zrt2 strain. Put plainly: Cell-associated zinc, zrt1zrt2 strain. As to the method: (§1) Zinc uptake assays were performed as described previously for iron uptake (Eide et al. (1992) J. Biol. Chem. 267:20774-20781) except that ^65ZnCl2 (Amersham) and LZM-EDTA were substituted for ^59FeCI3 and LIM-EDTA, respectively. Cells were incubated for 5 minutes in LZM-EDTA plus the indicated concentration of ^65Zn, collected on glass fiber filters (Schleicher and Schuell), washed with 10 ml ice-cold SSW (1 mM EDTA, 20 mM trisodium citrate, 1 mM KH2PO4, 1 mM CaCl2, 5 mM MgSO4, 1 mM NaCl pH 4.2), and cell-associated radioactivity was measured by liquid scintillation counting. […] Michaelis-Menten kinetic values were determined using […] software (Intellikinetics, Princeton, N.J.). […] The statistical significance of the differences of values relative to controls was determined with one-way analysis of variance (ANOVA) followed by a Dunnett multiple comparison test. β-galactosidase activity was assayed in cells harvested at an OD600 of 0.5-2.0 as described by Guarente (Guarente, L. (1983) Methods Enzymol. 101:181-191) and activity is expressed as the change in absorbance at 420 nm×1000 divided by (min×ml of culture used×OD600 of the culture). Cell-associated zinc was measured in parallel cultures supplemented with tracer amounts of ^65Zn (10 μM) and nonradioactive zinc to the indicated final concentration. […]

A further data set deals with zrt1 strain. Put plainly: Cell-associated zinc, zrt1 strain. The protocol: as §1

Regarding `[Cl][Cu][Cl]` [Cu], the “effect on zrt1 growth in LIM” value with zrt1 mutant (ZHY1) cells was “no effect”.

As to `[Zn+2]` [zinc], the “effect on zrt1 growth in LIM” value in the data set with zrt1 mutant (ZHY1) cells is on record as “greatly enhanced growth”. Further, the “increase in zinc requirement of zrt1 mutant compared to wild type” value with zrt1 mutant (ZHY1) cells (growth in zinc-limiting medium) is 75 fold and 100 fold. In addition, the “total zinc required for maximum number of cell divisions” value with zrt1 mutant (ZHY1) cells (zrt1, LZM) is listed as “approximately 500 μM”. Moreover, the “total zinc for maximum number of divisions” value in the data set on zrt1 mutant (ZHY1) cells (zrt1, LZM-EDTA (LZM without EDTA), 16 hours) was 0.5 µM. Moreover, in the data set on zrt1 mutant (ZHY1) cells (zrt1, LZM-EDTA, 16 hours), the “calculated free zinc [Zn]F for maximum number of divisions” value is around 6 nM. For the same compound, the “growth rate versus untreated culture” value in the data set on zrt1 mutant (ZHY1) cells (zrt1 cells, SD glucose supplemented with 2 mM ZnCl2) is on record as “No difference in growth rate”. Also, the cell-associated zinc in the data set on zrt1zrt2 strain (10 μM total zinc) turned out to be 5±0.6 pmol/10^6 cells; with zrt1zrt2 strain (1000 μM total zinc), 86±21 pmol/10^6 cells; with zrt1 strain (10 μM total zinc), 133±12 pmol/10^6 cells; in the data set with zrt1 strain (1000 μM total zinc), 168±14 pmol/10^6 cells.

As for `[Cl][Mn][Cl]` [Mn], the “effect on zrt1 growth in LIM” value in the data set on zrt1 mutant (ZHY1) cells is recorded as “no effect”.

Turning to `[Cl-].[Cl-].[Co+2]` [Co], in the data set on zrt1 mutant (ZHY1) cells, the “effect on zrt1 growth in LIM” value is listed as “no effect”.
